In patent US20170304369A1, “METHODS OF DIFFERENTIATING STEM CELLS INTO LIVER CELL LINEAGES” (Agency for Science, Technology and Research, priority 2014, published 2017):

Experiments:
hPSC-derived DE = test: Foregut specification: treatment of hPSC-derived DE (day 3), downstream gene expression by RT-qPCR; assay type: cell-based, human; settings: for downstream LB gene expression (AFP, CEBPA, TBX3, HNF1B) / expression of MHG markers CDX2 and EVX1: 24 h during foregut specification; for HNF6, PROX1 and HEX expression: Wnt inhibition during foregut specification
Excerpt: RT-quantitative PCR was used to quantify gene expression. […] During liver development, populations of definitive endoderm cells are first patterned along the anterior-posterior axis to form either the foregut or mid/hindgut. In the present invention the effects of signaling inhibition on the developmental competence of the foregut cells to give rise to the liver bud (LB) cells was examined. Competence is defined as the capacity of one stem cell or progenitor cell to differentiate into its daughter cell type. For example, the posterior foregut is competent when it could give rise to its daughter cell types such as the pancreatic endoderm and LB cells.

hepatic progenitors = test: Treatment of hepatic progenitors (days 13-18), hepatocyte-like cell, periportal versus perivenous gene expression; assay type: cell-based, human
PFG cells = test: Liver bud (LB) specification from posterior foregut, days 4-6, gene expression; assay type: cell-based, human
Description: (§1) mTeSR1-grown hPSCs were cultured and differentiated as follows: • a) hPSCs cells were seeded at 1:12 as small clumps using Accutase (Millipore, Cat#SCR005) and Geltrex (Lifetech, Cat#A1413302). • b) Anterior Primitive Streak (day 1) was specified using Activin A (100 ng/ml), CHIR99021 (3 μM), PI-103 (50 nM) and Fgf2 (10 ng/ml) in serumless CDM2 basal medium for 24 hr. • c) Activin A (100 ng/ml) and DM3189 (250 nM) and PI-103 (50 nM) were added in the same basal medium for 24 hr to induce Definitive Endoderm (DE) (day 2). • d) DE was then patterned into PFG by using A83-01 (1 μM), RA (2 μM), BMP4 (30 ng/ml) and Fgf2 (10 ng/ml) in CDM KOSR basal media for another 24 hrs. • e) PFG was further differentiated to LB progenitors using Activin A (100 ng/ml), 8-bromo-CAMP (1 mM) and BMP4 (10 ng/ml) in CDM KOSR basal media for 3 days (day 4 to 6). • f) LB progenitors were treated with BMP4 (10 ng/ml), Oncostatin M (10 ng/ml), Dexamethasone ([…]), DAPT, C59 (1 μM) or RO4919097 (2 μM), forskolin ([…]), human recombinant insulin (10 μg/ml), ascorbic acid-2 phosphate (200 μg/ml), L-gluthathione ([…]) and amino acid concentrate and in IMDM/F12 media for the next 6 days (day 7 to 12) to induce hepatic progenitors. • g) Hepatic progenitors were treated with Dexamethasone (10 μM), RO4929097 (2 μM) or DAPT (10 μM), Forskolin (10 μM), human recombinant insulin (10 μg/ml), ascorbic acid-2 phosphate (200 μg/ml) in IMDM/F12 media for 6 days (day 13 to 18) to generate hepatocyte-like cells. Intra-Splenic Transplantation into FRG^−/− Mice
(§2) RNA was extracted using Zymo RNA extraction kit. RT-quantitative PCR was used to quantify gene expression. Primer sequences were designed by NCBI Primer Tool and primer specificity and linearity was tested before usage for gene expression analyses.
The signaling pathways, including Retinoic, Nodal/Activin, Bmp, PKA, FGF and Wnt signaling, were explored to determine if they could directly regulate LB specification.

hPSC-derived LB cells = test: Hepatic progenitor specification from hPSC-derived LB cells (days 7-12), liver gene expression
Description: as §1, §2
To identify the signals that regulate the progression of the LB progenitors from an ALB- to a more differentiated ALB+ state, multiple signaling pathways were systematically screened for their effects on ALB expression (including FGF, WNT, Notch, HGF, cAMP/PKA, TGFβ, and BMP).

Q: Which results are given for `Cc1cc(-c2ccc(CC(=O)Nc3ccc(-c4cccnc4)cc3)cc2)ccn1` [C59, 2-(4-(2-methylpyridin-4-yl)phenyl)-N-(4-(pyridin-3-yl)phenyl)acetamide]?
A: downstream LB gene expression (AFP, CEBPA, TBX3, HNF1B) (hPSC-derived DE): severely reduces; expression of MHG markers CDX2 and EVX1 (hPSC-derived DE): reduces; HNF6, PROX1 and HEX expression (hPSC-derived DE): upregulated; expression of ALB, CYP3A7 (hepatic progenitors): promotes

Q: `COC(=O)[C@@]1(OC)C[C@H]2O[C@]1(C)n1c3ccccc3c3c4c(c5c6ccccc6n2c5c31)C(=O)N(C)C4` [KT5823, (9S,10R,12R)-2,3,9,10,11,12-Hexahydro-10-methoxy-2,9-dimethyl-1-oxo-9,12-epoxy-1H-diindolo[1,2,3-fg:3′,2′,1′-kl]pyrrolo[3,4-i][1,6]benzodiazocine-10-carboxylic acid, methyl ester] was tested. Which “expression of FAH, PAH, HGD, TAT, CPS1, ARG1, FBA, FBB and FBG” value (hepatic progenitors; PKG antagonists) did it give?
A: upregulate

Q: Activin: activator of TGFβ signaling was tested. Which periportal genes (hepatic progenitors) did it give?
A: downregulation

Q: And the “later expression of ALB in subsequent differentiation” value (PFG cells; 10 ng/ml during LB specification)?
A: increases

Q: What about the “HNF4A, HNF1A, and TBX3 levels” value (PFG cells; day 4 to 6) of the same compound?
A: increases

Q: And the “LB expression (AFP and CEBPA)” value (PFG cells; day 4 to 6)?
A: reduces

Q: What about the LB marker expression (PFG cells; increasing the dose) of the same compound?
A: seems to reduce

Q: What about the “expression of ALB on day 13” value (PFG cells; treatment during LB specification (days 4-6)) of the same compound?
A: enhances

Q: Which results are given for “DKK1: Dickkopf 1, inhibitor of Wnt signaling”?
A: downstream LB gene expression (AFP, CEBPA, TBX3, HNF1B) (hPSC-derived DE): severely reduces; expression of MHG markers CDX2 and EVX1 (hPSC-derived DE): reduces; HNF6, PROX1 and HEX expression (hPSC-derived DE): upregulated; expression of ALB, CYP3A7 (hepatic progenitors): promotes

Q: How did the “tyrosine metabolic genes and xenobiotic metabolic genes such as CYP3A4” value (hepatic progenitors) turn out when “human recombinant insulin: activator of insulin signaling” was run?
A: continues to enhance

Q: And the “expression of ALB, CPS1 and CYP3A4” value (hPSC-derived LB cells)?
A: strongly enhanced

Q: And the “expression of PAH, HGD, HPD, TAT, MAI, and FAH” value (hPSC-derived LB cells; days 7 to 12)?
A: significantly increases
